Reference: ChEMBL document CHEMBL3885861, “Open TG-GATES”

Organism: Rattus norvegicus
Experiment: Open TG-GATES - Regimen: Single
Type: toxicity, organism-based, Sprague-Dawley
Parameters: regimen Single, gender Male, age 6 weeks
Conditions: in vivo, po, 20 mg/kg, route gavage, dose level Middle; for Eos / Fbg / Hb / Ht / Lym / MCH / MCHC / MCV / Mono / Neu / PT / Plat / RBC / WBC / APTT / Bas: tissue Blood; for KIDNEY_L / KIDNEY_R / KIDNEY_TOTAL: tissue Kidney; for LIVER: tissue Liver; for ALT / AST / BUN / CRE / Cl / DBIL / GLC / IP / LDH / Na / RALB / TBIL / TC / TG / TP / gamma-GTP: tissue Plasma

CC/C(=C(\c1ccccc1)c1ccc(OCCN(C)C)cc1)c1ccccc1 [TAMOXIFEN]
Eos (3 h): 1% | Fbg (3 h): 267 mg/dL | Hb (3 h): 13 g/dL | Ht (3 h): 39.3% | Lym (3 h): 78% | MCH (3 h): 21 pg | MCHC (3 h): 33% | MCV (3 h): 63.8 fL | Mono (3 h): 4.2% | Neu (3 h): 16.6% | PT (3 h): 12.1 s | Plat (3 h): 116.7 x10_4/uL | RBC (3 h): 616 x10_4/ul | WBC (3 h): 103.9 x10_2/uL | KIDNEY_L (3 h): 0.8 g | KIDNEY_R (3 h): 0.8 g | KIDNEY_TOTAL (3 h): 1.6 g | LIVER (3 h): 8.4 g | ALT (3 h): 51 IU/L | AST (3 h): 81.2 IU/L | BUN (3 h): 10.4 mg/dL | CRE (3 h): 0.2 mg/dL | Cl (3 h): 106.6 meq/L | DBIL (3 h): 0.016 mg/dL | GLC (3 h): 178.8 mg/dL | IP (3 h): 9.8 mg/dL | LDH (3 h): 56 IU/L | Na (3 h): 140 meq/L | RALB (3 h): 2.6 g/dL | TBIL (3 h): 0.052 mg/dL | TC (3 h): 91.8 mg/dL | TG (3 h): 86 mg/dL | TP (3 h): 5.5 g/dL | gamma-GTP (3 h): 1.2 IU/L | TERMINAL_BW (6 h): 192.3 g | APTT (6 h): 18.2 s | Bas (6 h): 0% | Eos (6 h): 1.2% | Fbg (6 h): 269.4 mg/dL | Hb (6 h): 13.2 g/dL | Ht (6 h): 39.4% | Lym (6 h): 73.8% | MCH (6 h): 21.3 pg | MCHC (6 h): 33.5% | MCV (6 h): 63.7 fL | Mono (6 h): 4.2% | Neu (6 h): 20.4% | PT (6 h): 12.1 s | Plat (6 h): 107 x10_4/uL | RBC (6 h): 618.2 x10_4/ul | WBC (6 h): 64.9 x10_2/uL | KIDNEY_L (6 h): 0.8 g | KIDNEY_R (6 h): 0.8 g | KIDNEY_TOTAL (6 h): 1.6 g | LIVER (6 h): 7.7 g | ALT (6 h): 43.4 IU/L | AST (6 h): 82.8 IU/L | BUN (6 h): 8 mg/dL | CRE (6 h): 0.2 mg/dL | Cl (6 h): 109 meq/L | DBIL (6 h): 0.008 mg/dL | GLC (6 h): 175.8 mg/dL | IP (6 h): 10.7 mg/dL | LDH (6 h): 92.4 IU/L | Na (6 h): 141.8 meq/L | RALB (6 h): 2.6 g/dL | TBIL (6 h): 0.048 mg/dL | TC (6 h): 82.2 mg/dL | TG (6 h): 45.4 mg/dL | TP (6 h): 5.4 g/dL | gamma-GTP (6 h): 1.4 IU/L | TERMINAL_BW (9 h): 194.8 g | APTT (9 h): 16.1 s | Bas (9 h): 0% | Eos (9 h): 1% | Fbg (9 h): 252.6 mg/dL | Hb (9 h): 12.7 g/dL | Ht (9 h): 38% | Lym (9 h): 74.4% | MCH (9 h): 21.6 pg | MCHC (9 h): 33.3% | MCV (9 h): 64.9 fL | Mono (9 h): 2.8% | Neu (9 h): 21.6% | PT (9 h): 12.4 s | Plat (9 h): 114.1 x10_4/uL | RBC (9 h): 585.4 x10_4/ul | WBC (9 h): 73.4 x10_2/uL | KIDNEY_L (9 h): 0.8 g | KIDNEY_R (9 h): 0.8 g | KIDNEY_TOTAL (9 h): 1.7 g | LIVER (9 h): 7.1 g | ALT (9 h): 40 IU/L | AST (9 h): 75.8 IU/L | BUN (9 h): 8.6 mg/dL | CRE (9 h): 0.2 mg/dL | Cl (9 h): 107.6 meq/L | DBIL (9 h): 0.008 mg/dL | GLC (9 h): 178.8 mg/dL | IP (9 h): 11 mg/dL | LDH (9 h): 46 IU/L | Na (9 h): 141.4 meq/L | RALB (9 h): 2.4 g/dL | TBIL (9 h): 0.042 mg/dL | TC (9 h): 61.8 mg/dL | TG (9 h): 35.4 mg/dL | TP (9 h): 5.1 g/dL | gamma-GTP (9 h): 1 IU/L | TERMINAL_BW (24 h): 194.8 g | APTT (24 h): 16.8 s | Bas (24 h): 0% | Eos (24 h): 1.2% | Fbg (24 h): 232.8 mg/dL | Hb (24 h): 12.7 g/dL | Ht (24 h): 38.5% | Lym (24 h): 79% | MCH (24 h): 21.3 pg | MCHC (24 h): 33% | MCV (24 h): 64.5 fL | Mono (24 h): 2.4% | Neu (24 h): 17.2% | PT (24 h): 12.8 s | Plat (24 h): 117 x10_4/uL | RBC (24 h): 597.6 x10_4/ul | WBC (24 h): 83.2 x10_2/uL | KIDNEY_L (24 h): 0.9 g | KIDNEY_R (24 h): 0.9 g | KIDNEY_TOTAL (24 h): 1.8 g | LIVER (24 h): 8.7 g | ALT (24 h): 52.2 IU/L | AST (24 h): 79.2 IU/L | BUN (24 h): 13 mg/dL | CRE (24 h): 0.2 mg/dL | Cl (24 h): 109.6 meq/L | DBIL (24 h): 0.016 mg/dL | GLC (24 h): 186 mg/dL | IP (24 h): 8.3 mg/dL | LDH (24 h): 64 IU/L | Na (24 h): 143.2 meq/L | RALB (24 h): 2.6 g/dL | TBIL (24 h): 0.038 mg/dL | TC (24 h): 60.2 mg/dL | TG (24 h): 84.6 mg/dL | TP (24 h): 5.4 g/dL | gamma-GTP (24 h): 1.4 IU/L
